Values of other authors as cited in patent US20030175285A1, “Molecule of pharmaceutical interest comprising at its n-terminal a glutamic acid or a glutamine in the form of a physiologically acceptable strong acid” (priority 2000, published 2003).
Ends that are not written are not given here.

What was measured:
[1] = system: melanoma; conditions: acetate form, patients suffering from a melanoma
[2] = acetate form
[3] = system: osteoblasts and chondrocytes; conditions: trifluoroacetate form

In the case of EVDPIGHLY [MAGE-3], the clinical antitumor effect [1] is listed as “tumor regression” and the required storage temperature [2] is listed as −80 °C.
In the case of Calcitonin, the “toxicity for cells in culture” value [3] is listed as “toxic”.
In the case of “Amylin: synthetic peptide in trifluoroacetate form (KCNTATCATQRLANFLVHSSNNFGAILSSTNVGSNTY; cysteine pairing not given here; also: trifluoroacetate salt; UniProt P10997 34-70, looked up)”, the “toxicity for cells in culture” value [3] is listed as “toxic”.
